Molecular target: BACE-1 (Homo sapiens, UniProt P56817)
Assay: BACE-1 enzyme assay
Type: biochemical
Conditions: Boc-protected compound; enzyme- and cell-based screening

Chain of BACE-1 (P56817 46-501): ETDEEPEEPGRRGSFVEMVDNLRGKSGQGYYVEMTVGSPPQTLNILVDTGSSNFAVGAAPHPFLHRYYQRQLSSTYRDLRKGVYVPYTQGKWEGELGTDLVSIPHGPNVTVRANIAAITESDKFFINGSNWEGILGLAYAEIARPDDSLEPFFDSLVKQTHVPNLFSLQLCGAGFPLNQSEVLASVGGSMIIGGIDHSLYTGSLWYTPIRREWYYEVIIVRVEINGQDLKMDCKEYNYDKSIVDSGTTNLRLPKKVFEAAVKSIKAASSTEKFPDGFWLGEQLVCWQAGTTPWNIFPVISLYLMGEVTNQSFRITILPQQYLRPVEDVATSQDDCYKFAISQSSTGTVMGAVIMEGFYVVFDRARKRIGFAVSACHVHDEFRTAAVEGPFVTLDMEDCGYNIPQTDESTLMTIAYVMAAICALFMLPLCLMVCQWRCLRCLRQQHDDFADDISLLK

## Cc1cc2cc(c1)C(=O)N[C@H]([C@H](O)CN(Cc1cccc(C(C)C)c1)C(=O)OC(C)(C)C)CCC/C=C/CCCC2=O [Compound 27b, (R)-2-Hydroxy-2-((E)-(S)-16-methyl-2,13-dioxo-3-aza-bicyclo[12.3.1]octadeca-1(17),8,14(18),15-tetraen-4-yl)-ethyl-(3-isopropyl-benzyl)-carbamic acid tert-butyl ester]
  BACE-1 activity (in words): inactive
